In US20090093551A1, “REMOTELY TRIGGERED RELEASE FROM HEATABLE SURFACES” (priority 2006, published 2009):

Key:
[1] = In vitro EM field-triggered release of fluorescent DNA from nanoparticles embedded in hydrogel (matrigel) plugs; settings: hydrogel plug; for release on higher power EM field: higher power 3 kW
[2] = mouse, in vivo
Method: Phenol red free, growth factor reduced matrigel (400 μl, BD Biosciences) was added to 100 μl of particles. To obtain 1.05% total concentration of particles, 75 μl of DNA-conjugated particles (approximately 3.3 mg/ml) were added to 25 μl of similar 50 nm particles (200 mg/ml, Chemicell). Gels (total volume 500 μl) were mixed at 4° C. to prevent gelation.
Prior to injection of matrigel plugs into mice, approval from the Burnham Institute Animal Use Committee was obtained (AUF 05-054). In these experiments, 500 μl volumes were injected subcutaneous near the posterior mammary fat pad of six athymic nude mice and allowed to gel for 45 minutes. Prior to injection, animals were anesthetized with Avertin® (tribromoethanol) and remained under anesthesia during the remainder of the experiment. Three animals were treated with EM fields for two 5 minute doses, with 15 minutes between field applications (+EMF), while three were not treated (−EMF). […] To quantify penetration depth, 8 images of the tissue/phantom boundary were taken for each animal (3 animals per group, 24 images total). […] Using Metamorph software (Universal Imaging), green fluorescence on the tissue side of the boundary was quantified. For each fluorescent “object,” the area and distance from the tissue boundary was measured. An area-weighted average distance was calculated. […]

Row | Substance | release on higher power EM field [1] | release on low power EM field pulses ([1]; low power EM field pulses 0.55 kW) | increase of the average distance of fluorescence signal, EM field treated over unexposed controls [2] | release of fluorescein into surrounding buffer on repeated EM field pulses ([1]; EM field pulses 400 kHz, 1.25 kW, 5 minutes every 40 minutes)
1 | 5′-CGCTGATTCAAGCCGACTAACCGC-3′ (DNA CGCTGATTCAAGCCGACTAACCGC; DNA, backbone and methylation of C not given here; fluorescent dye at 5' end, dye not named) [24 bp, HEX, 5′ HEX-labeled 24 bp complement DNA hybridized to 30 bp parent DNA on magnetite nanoparticles] | simultaneous release of both species | – | – | –
2 | 5′-TCG CTG ATT CAA-3′ (DNA TCGCTGATTCAA; DNA, backbone and methylation of C not given here; fluorescent dye at 5' end, dye not named) [12 bp, FAM, 5′ FAM-labeled 12 bp complement DNA hybridized to 30 bp parent DNA on magnetite nanoparticles] | simultaneous release of both species | triggered release predominantly of FAM | – | –
3 | 5′-TGA TTC AAG CCG ACT AAC-3′ (DNA TGATTCAAGCCGACTAAC; 5' fluorescein label, further chemistry not given here) [5′ fluorescein-labeled 18 bp complement DNA hybridized to 30 bp parent DNA on 50 nm dextran-coated magnetite nanoparticles; model drug] | – | – | approximately six-fold | corresponding release of fluorescein
